According to patent publication US8716285B2, “N-hydroxy-benzamids for the treatment of cancer” (Hoffmann-La Roche Inc., priority 2010, dated 2014):

Assays:
[1] = biological target: recombinant human HDAC8 (Homo sapiens (Human), UniProt Q9BY41); assay: HDAC8 inhibition: recombinant HDAC8 fluorometric assay; assay type: biochemical; conditions: recombinant human HDAC8, substrate Ac-Arg-His-Lys-Lys(ε-acetyl)-AMC
Method: A competitive inhibitory assay of HDAC8 was carried out by using recombinant HDAC8 and a commercial substrate Ac-Arg-His-Lys-Lys(ε-acetyl)-AMC.
Compounds were tested for their ability to inhibit histone deacetylase 8 using an in vitro deacetylation assay. The enzyme source for this assay was recombinant human HDAC8 protein expressed and purified from insect cells. […] The substrate consisted of a commercial product Ac-Arg-His-Lys-Lys(ε-acetyl)-AMC (substrate is available from Cayman Chemical). […] In a detailed procedure, 8 μl of HDAC8 enzyme solution (0.125 μg/μl) was transferred to assay plates (CORNING 3676). 1 μl of half-log diluted compounds were added into wells and incubated for 15 min at rt. After that, 8 μl of substrate solution was transferred to the wells and incubated for 30 min at rt. After deacetylation of the substrate by incubation with HDAC8 enzyme, subsequent exposure to a developing reagent produced a fluorophore that was directly proportional to the level of deacetylation. So 4 μl of developer regent (Cayman 10006394) was added into the wells in the assay plates and incubated for 15 min. The fluorescence signal was measured by a FlexStation3 plate reader (excitation wave length 340-360 nm; emission wave length 440-465 nm). The IC50 was calculated after normalization and curve fitting using XLfit4.0 software. Inhibition %=[Mean(top)−signal(sample)]*100/[Mean(top)−Mean(bottom)].

[2] = biological target: HDAC6 (Homo sapiens (Human), UniProt Q9UBN7); assay: Tubulin acetylation cytoblot assay (A549 cells); assay type: cell-based; conditions: 17-18 h, concentration for 50% induction of acetylated tubulin, read-out: Tub-ac EC50
HDAC6, sequence (Q9UBN7 whole entry): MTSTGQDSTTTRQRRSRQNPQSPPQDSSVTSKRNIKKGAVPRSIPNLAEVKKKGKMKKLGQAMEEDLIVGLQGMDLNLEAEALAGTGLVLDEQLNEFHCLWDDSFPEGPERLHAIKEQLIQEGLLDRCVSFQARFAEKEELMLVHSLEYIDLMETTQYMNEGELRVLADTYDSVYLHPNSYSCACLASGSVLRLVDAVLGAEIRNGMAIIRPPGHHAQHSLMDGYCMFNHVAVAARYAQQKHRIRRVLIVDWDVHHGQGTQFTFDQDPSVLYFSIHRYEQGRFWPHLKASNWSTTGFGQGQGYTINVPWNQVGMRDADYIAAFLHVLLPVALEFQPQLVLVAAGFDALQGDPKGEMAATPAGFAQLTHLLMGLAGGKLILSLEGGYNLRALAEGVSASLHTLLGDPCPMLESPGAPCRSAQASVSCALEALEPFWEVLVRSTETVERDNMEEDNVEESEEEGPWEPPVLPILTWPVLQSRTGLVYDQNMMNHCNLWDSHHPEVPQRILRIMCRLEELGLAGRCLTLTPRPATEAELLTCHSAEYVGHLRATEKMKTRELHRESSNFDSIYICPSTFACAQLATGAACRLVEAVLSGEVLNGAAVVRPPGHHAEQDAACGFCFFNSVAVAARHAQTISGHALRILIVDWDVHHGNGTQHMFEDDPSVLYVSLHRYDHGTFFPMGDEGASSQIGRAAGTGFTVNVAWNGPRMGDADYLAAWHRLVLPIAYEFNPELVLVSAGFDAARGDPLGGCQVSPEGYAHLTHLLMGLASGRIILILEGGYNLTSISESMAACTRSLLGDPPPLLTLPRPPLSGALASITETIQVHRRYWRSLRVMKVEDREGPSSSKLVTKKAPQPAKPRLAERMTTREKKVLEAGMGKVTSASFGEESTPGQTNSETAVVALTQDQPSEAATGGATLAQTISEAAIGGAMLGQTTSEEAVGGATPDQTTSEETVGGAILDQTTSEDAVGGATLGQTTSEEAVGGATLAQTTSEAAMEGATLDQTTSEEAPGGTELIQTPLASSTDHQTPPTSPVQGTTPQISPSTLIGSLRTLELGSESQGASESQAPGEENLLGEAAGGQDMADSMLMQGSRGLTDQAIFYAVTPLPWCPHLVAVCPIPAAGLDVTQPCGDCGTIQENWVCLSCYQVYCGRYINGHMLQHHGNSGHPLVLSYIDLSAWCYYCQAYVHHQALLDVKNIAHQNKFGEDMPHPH
Method: Tubulin acetylation is a PD marker for HDAC6 inhibition. The extent of tubulin acetylation represents the inhibitory effect on HDAC6.
Novel compounds were tested for their ability to inhibit HDAC6 using a cell-based deacetylation assay. Tubulin acetylation was detected by the anti-acetylated tubulin antibody (Sigma) and horse radish peroxidase (HRP) conjugated secondary antibody (KangChen Bio. Tech.). […] 20 μl of diluted compound solution was transferred to the cell culture plate and incubated for 17-18 h. After medium removal and fixation by formaldehyde (3.7% paraformaldehyde in TBS), the cells in the plates were treated with 180 μl of −20° C. MeOH and incubated for 5 min at rt. The cell lysis was incubated with 75 μl of primary anti-acetylated tubulin antibody and secondary HRP conjugated antibody solution (1:750 anti-acetylated tubulin, 1:750 HRP conjugated anti-mouse IgG in antibody dilution buffer not containing sodium azide) for 4 h at 4° C. By adding the HRP substrate, enhanced chemiluminescence (ECL) reagent (GE Healthcare) generated luminescence corresponding to the level of tubulin acetylation. So that 75 μl of ECL was added into the wells and the luminescence from each well was immediately quantified by the plate reader. Based on the luminescence reading, the IC50s against HDAC6 of the tested compounds were calculated by plotting the curve with XLfit4.0 software. Inhibition %=[signal(sample)−Mean(bottom)]*100/[Mean(top)−Mean(bottom)]

[3] = system: p21 promoter-luciferase construct; assay: p21 reporter gene induction in HeLa cells transfected with p21 promoter-luciferase construct; assay type: cell-based; conditions: for p21 RP3: relative gene level of p21 induced compared to MS275 at 3 μM; for p21 RP10: relative level of p21 induced compared to MS275 at 10 μM; for p21 RP30: relative level of p21 induced compared to MS275 at 30 μM
Method: As a surrogate for in-cell HDAC1/2/3 inhibition, p21 induction was used as a counterscreen to evaluate the selectivity of the compounds in the present invention toward HDAC6 or HDAC8.
The novel compounds of the present invention were tested for their ability to induce p21 gene expression using a reporter gene assay involving HeLa cells transfected with a p21 promoter-luciferase construct. The p21 promoter contained the Sp1/Sp3 binding site for HDAC but not the upstream p53 binding site. Briefly, the day before transfection, HeLa cells were seeded at 11,000 cells/well in a 96-well culture plate and incubated at 37° C. in 5% CO2 overnight. A transfection media was prepared prior to transfection according to the following procedure: (1) 5 μl serum-free DMEM, 0.15 μl Fugene 6 reagent, 40 ng p21-luc, 10 ng GFP were mixed gently and incubated at rt for 30 minutes; (2), then 98 μl DMEM (with 10% FBS, 1% penicillin and streptomycin) was added to the DNA: Fugene 6 reagent complex and mixed gently. For transfection, the medium was removed and replaced with 100 μl/well transfection media which was prepared according to the procedure above. After incubating the cells for 24 hours at 37° C. in 5% CO2, fresh media and test compounds were added to the wells and the cells further incubated for 15 hours at 37° C. in 5% CO2. Cells were lysed by adding 80 μl/well of a cell culture lysis reagent (Promega). […] 100 μl luciferase assay reagent (Promega) was then added to every 20 μl cell lysate for luminometer detection. […] Induction activity for specific representative compounds can be found in Table 3.

recombinant human HDAC8, sequence (Q9BY41 whole entry): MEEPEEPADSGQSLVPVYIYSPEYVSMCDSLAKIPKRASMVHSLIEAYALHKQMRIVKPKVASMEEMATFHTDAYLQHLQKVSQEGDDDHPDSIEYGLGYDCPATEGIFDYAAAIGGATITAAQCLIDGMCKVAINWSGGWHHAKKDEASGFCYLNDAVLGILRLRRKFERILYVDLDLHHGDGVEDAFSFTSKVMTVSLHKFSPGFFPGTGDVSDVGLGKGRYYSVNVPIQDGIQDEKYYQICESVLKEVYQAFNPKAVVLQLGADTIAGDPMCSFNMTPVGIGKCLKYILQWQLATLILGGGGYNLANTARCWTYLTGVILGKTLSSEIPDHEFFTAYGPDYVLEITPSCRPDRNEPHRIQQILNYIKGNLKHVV

Structure (SMILES)	IC50 [1] [µM]	EC50 [2] [µM]	p21 RP3 [3]	p21 RP10 [3]	p21 RP30 [3]
O=C(NO)c1ccc2c(c1)CC(Nc1nccc(-c3cccnc3Cl)n1)CC2 (centres unmarked) [Example 30, 7-[4-(2-Chloro-pyridin-3-yl)-pyrimidin-2-ylamino]-5,6,7,8-tetrahydro-naphthalene-2-carboxylic acid hydroxyamide]	0.51	0.6	0.40	0.10	−0.03
Cc1cc(Oc2ccccc2)nc(NC2CCc3ccc(C(=O)NO)cc3C2)n1 (centres unmarked) [Example 32, 7-(4-Methyl-6-phenoxy-pyrimidin-2-ylamino)-5,6,7,8-tetrahydro-naphthalene-2-carboxylic acid hydroxyamide]	1.5	5.2	0.26	0.15	−0.04
CCCCS(=O)(=O)NC1CCc2ccc(C(=O)NO)cc2C1 (centres unmarked) [Example 39, 7-(Butane-1-sulfonylamino)-5,6,7,8-tetrahydro-naphthalene-2-carboxylic acid hydroxyamid]	0.91	4.2	0.08	0.03	0.04
O=C(NO)c1ccc2c(c1)CC(NS(=O)(=O)c1ccc(F)cc1F)CC2 (centres unmarked) [Example 44, 7-(2,4-Difluoro-benzenesulfonylamino)-5,6,7,8-tetrahydro-naphthalene-2-carboxylic acid hydroxyamide]	0.21	3.9	0.63	0.32	0.56
COc1ccc(S(=O)(=O)NC2CCc3ccc(C(=O)NO)cc3C2)cc1OC (centres unmarked) [Example 45, 7-(3,4-Dimethoxy-benzenesulfonylamino)-5,6,7,8-tetrahydro-naphthalene-2-carboxylic acid hydroxyamide]	0.39	3.43	0.18	0.18	0.46
O=C(NO)c1ccc2c(c1)CC(NS(=O)(=O)c1ccc(Cl)c(Cl)c1)CC2 (centres unmarked) [Example 47, 7-(3,4-Dichloro-benzenesulfonylamino)-5,6,7,8-tetrahydro-naphthalene-2-carboxylic acid hydroxyamide]	0.47	3.42	0.08	0.01	−0.04
O=C(NO)c1ccc2c(c1)CC(NS(=O)(=O)c1cccnc1)CC2 (centres unmarked) [Example 48, 7-(Pyridine-3-sulfonylamino)-5,6,7,8-tetrahydro-naphthalene-2-carboxylic acid hydroxyamide]	0.37	6.2	0.41	0.17	0.17
O=C(NO)c1cc2c(cc1F)CCC(NS(=O)(=O)c1ccc(Cl)cc1)C2 (centres unmarked) [Example 51, 7-(4-Chloro-benzenesulfonylamino)-3-fluoro-5,6,7,8-tetrahydro-naphthalene-2-carboxylic acid hydroxyamide]	1.28	5.2	0.20	0.03	0.00

The remaining compounds from weak to strong by IC50 [1], led by results:

IC50 [1] [µM]	EC50 [2] [µM]	Structure (SMILES)	p21 RP3 [3]	p21 RP10 [3]	p21 RP30 [3]
1.78	0.93	O=C(NO)c1ccc2c(c1)CC(Nc1ncc3cc(F)ccc3n1)CC2 (centres unmarked) [Example 35, 7-(6-Fluoro-quinazolin-2-ylamino)-5,6,7,8-tetrahydro-naphthalene-2-carboxylic acid hydroxyamide]	−0.86	−0.30	–
1.51	6.43	O=C(NO)c1cc2c(cc1F)CCC(Nc1nccc(-c3cccnc3)n1)C2 (centres unmarked) [Example 50, 3-Fluoro-7-(4-pyridin-3-yl-pyrimidin-2-ylamino)-5,6,7,8-tetrahydro-naphthalene-2-carboxylic acid hydroxyamide]	0.26	0.03	−0.01
1.27	0.93	O=C(NC1CCc2ccc(C(=O)NO)cc2C1)OCc1cccnc1 (centres unmarked) [Example 38]	0.15	0.05	0.02
0.93	3.74	O=C(NO)c1cc2c(cc1F)CCC(NS(=O)(=O)c1cccc(Cl)c1)C2 (centres unmarked) [Example 52, 7-(3-Chloro-benzenesulfonylamino)-3-fluoro-5,6,7,8-tetrahydro-naphthalene-2-carboxylic acid hydroxyamide]	0.12	0.01	−0.02
0.9	1.43	O=C(NO)c1ccc2c(c1)CC(Nc1nccc(-c3ccc(Cl)nc3)n1)CC2 (centres unmarked) [Example 29, 7-[4-(6-Chloro-pyridin-3-yl)-pyrimidin-2-ylamino]-5,6,7,8-tetrahydro-naphthalene-2-carboxylic acid hydroxyamide]	0.39	0.07	−0.02
0.85	1.07	O=C(NO)c1ccc2c(c1)CC(NS(=O)(=O)c1ccc(Cl)cc1)CC2 (centres unmarked) [Example 41, 7-(4-Chloro-benzenesulfonylamino)-5,6,7,8-tetrahydro-naphthalene-2-carboxylic acid hydroxyamide]	−0.15	0.35	0.05
0.48	7.86	O=C(NO)c1ccc2c(c1)CC(Nc1nccc(-c3cnc4ccccc4c3)n1)CC2 (centres unmarked) [Example 34, 7-(4-Quinolin-3-yl-pyrimidin-2-ylamino)-5,6,7,8-tetrahydro-naphthalene-2-carboxylic acid hydroxyamide]	0.42	0.31	−0.02
0.37	3.85	O=C(NO)c1ccc2c(c1)CC(NS(=O)(=O)c1cccc(C(F)(F)F)c1)CC2 (centres unmarked) [Example 43, 7-(3-Trifluoromethyl-benzenesulfonylamino)-5,6,7,8-tetrahydro-naphthalene-2-carboxylic acid hydroxyamid]	0.13	0.08	−0.04
0.32	6.7	O=C(NO)c1ccc2c(c1)CC(Nc1nccc(-c3ccc(N4CCOCC4)nc3)n1)CC2 (centres unmarked) [Example 31, 7-[4-(6-Morpholin-4-yl-pyridin-3-yl)-pyrimidin-2-ylamino]-5,6,7,8-tetrahydro-naphthalene-2-carboxylic acid hydroxyamide]	0.18	0.19	0.12
0.19	4.86	O=C(NO)c1ccc2c(c1)CC(NS(=O)(=O)c1ccc(Cl)cc1Cl)CC2 (centres unmarked) [Example 46, 7-(2,4-Dichloro-benzenesulfonylamino)-5,6,7,8-tetrahydro-naphthalene-2-carboxylic acid hydroxyamide]	0.49	0.15	0.01
